Laboratory results published in PMC12123460 (ACS Central Science, 2025).
pEC50, pKd, pKi: −log10 of the molar value. Entries after “also recorded” stand apart in the source; their conditions may differ. Where two headings read alike, the source gives them in different places.

Experiments:
murine KOR = murine KOR (Mus musculus, UniProt P33534); assay: Live cell GloSensor cAMP assay, antagonist mode, KOR-expressing HEK293T cells; conditions: for KOR Signaling: GloSensor cAMP, HEK293T, 10 μM forskolin, salvinorin A at EC80
human MOR = human MOR (Homo sapiens, UniProt P35372); assay: Live cell GloSensor cAMP assay, antagonist mode, MOR-expressing HEK293T cells; conditions: 10 μM forskolin, DAMGO at EC80
[1] = target: T1, murine κ opioid receptor (KOR) (Mus musculus, UniProt P33534); assay: biochemical
[2] = target: full length human μ opioid receptor (MOR) (Homo sapiens, UniProt P35372); assay: 3H-naltrexone radioligand competition binding, MOR membranes
[3] = target: T1, murine κ opioid receptor (KOR); assay: 3H-naltrexone radioligand competition binding, KOR membranes
C56BL/6 mice [4] = assay: Opioid withdrawal symptoms assay in morphine tolerant mice; conditions: 1 h after morphine 20 mg/kg, naloxone 10 mg/kg, #020_E1 30 mg/kg
C56BL/6 mice [5] = test system: C56BL/6 mice
C56BL/6 mice [6] = assay: Conditioned place aversion in morphine tolerant mice
[7] = read-out: MOR Ki estimate (†), calculated from the Cheng–Prusoff equation based on a single point at 33 μM ligand
[8] = read-out: KOR Ki binding affinity, 3H-naltrexone displacement, mean from three dose response experiments
[9] = read-out: MOR Ki binding affinity, 3H-naltrexone displacement, mean from three dose response experiments

Molecule: CC1=C(c2cccc(O)c2)C2(C)CCC1N(CCc1ccccc1)C2C (stereo not drawn) [#030_E2]
- KOR Signaling (murine KOR): Inverse Agonist
- MOR Signaling (human MOR): Antagonist

Molecule: CCn1cc(CN2C3C(C)=C(c4cccc(O)c4)C(C)(CC3C(=O)OC)C2C)cn1 (stereo not drawn) [#031_E2]
- KOR Signaling (murine KOR): Inverse Agonist
- MOR Signaling (human MOR): Antagonist

Molecule: CCn1cc(CN2C3C=C(c4cccc(O)c4)C(C)(CC3C(=O)OC)C2C)cn1 (stereo not drawn) [#020_E2]
- pEC50 (murine KOR): 6.42
- KOR Signaling (murine KOR): Antagonist
- MOR Signaling (human MOR): Antagonist
- pKi [1]: 8.96

Molecule: CCN1CC(N2[C@@H]3C=C(c4ccccc4O)[C@@](C)(C[C@H]3C(=O)OC)[C@@H]2C)C1 (racemic) [(±)-#05]
- pKi [2, 7]: 4.80
- pKi [3, 8]: 5.10

Molecule: CCCCC1=C[C@@H]2[C@H](C(=O)OC)C[C@@]1(C)[C@H](C)N2C[C@@H]1CCO1 (racemic) [(±)-#09]
- pKi [2, 7]: 4.85
- pKi ([3]; read-out: KOR Ki estimate (†), calculated from the Cheng–Prusoff equation based on a single point at 33 μM ligand): 4.92

Molecule: C=CCN1CC[C@]23c4c5ccc(O)c4O[C@H]2C(=O)CC[C@@]3(O)[C@H]1C5 [naloxone]
- Precipitated opioid withdrawal symptoms (jumps, wet-dog shakes, rearing, forepaw shakes) (C56BL/6 mice [4]): induced behaviors consistent with aversive withdrawal
- i.p. dose required to return tail flick latency to baseline levels (C56BL/6 mice [5]; blocking of 20mg/kg morphine induced analgesia, dose response): 10 mg/kg
- Time spent in the antagonist-paired chamber pre- vs post-conditioning (C56BL/6 mice [6]; morphine tolerant mice, withdrawal precipitated by the antagonist): marked decrease in time spent in the antagonist-paired chamber; also recorded: significantly less time in the chamber
- CPA score (C56BL/6 mice [6]; test minus pretest time in drug-paired compartment): avoided the treatment compartment to a greater extent

Molecule: 3H-naltrexone [reference compound]
- pKd ([2]; read-out: Kd of the radioligand in MOR membrane preparation, saturation experiments, nonspecific binding with 33 μM unlabeled naloxone): 8.71
- pKd ([3]; read-out: Kd of the radioligand in KOR membrane preparation, saturation experiments, nonspecific binding with 33 μM unlabeled naloxone): 8.57

Molecule: COC(=O)[C@@H]1C[C@]2(C)C(C)=C(C)[C@H]1N(Cc1cnn(CC(F)F)c1)[C@H]2C (racemic) [(±)-#56]
- pKi [2, 9]: 5.06

Molecule: CN1CC[C@]23c4c5ccc(O)c4O[C@H]2[C@@H](O)C=C[C@H]3[C@H]1C5 [morphine]
- Tail flick latency (C56BL/6 mice [5]; 20 mg/kg i.p.): significantly increased tail flick latency

Molecule: COC(=O)C1CC2(C)C(c3cccc(O)c3)=C(C)C1N(C)C2C (stereo not drawn) [#019_E2]
- KOR Signaling (murine KOR): Inverse Agonist
- MOR Signaling (human MOR): Antagonist

Molecule: COC(=O)C1CC2(C)C(c3cccc(O)c3)=CC1N(CCOc1c(C)cccc1C)C2C (stereo not drawn) [#017_E2]
- KOR Signaling (murine KOR): Antagonist
- MOR Signaling (human MOR): Antagonist

Molecule: COC(=O)[C@@H]1C[C@]2(C)C(c3cc(F)cc(F)c3)=C[C@H]1N(C1CN(CCO)C1)[C@H]2C (racemic) [(±)-#57]
- pKi [2, 9]: 5.30
- pKi [3, 8]: 5.96

Molecule: CCN1[C@@H]2C=C(C)[C@@](C)(C[C@H]2C(=O)OC)[C@@H]1C (racemic) [(±)-#001]
- pKi [2, 9]: 5.15

Molecule: COC(=O)[C@@H]1C[C@]2(C)C(c3ccc(O)c(OC)c3)=C[C@H]1N(CCN)[C@H]2C [(+)-#33]
- pKi [2, 9]: 6.01
- pKi [3, 8]: 5.92

Molecule: COC(=O)C1CC2(C)C(c3ccco3)=CC1N(C(C)CN1CCCC1)C2C (racemic) [(±)-#11]
- pKi [3, 8]: 6.40
